# According to patent publication US9562035B2, “Benzamide derivative useful as FASN inhibitors for the treatment of cancer” (Janssen Pharmaceutica NV, priority 2013, dated 2017):
# Key:
# [1] = biological target: T1, hFASN enzyme (full length) (Homo sapiens, UniProt P49327); experiment: Fatty Acid Synthase (FASN) Inhibition Scintillation Proximity Assay; format: biochemical; conditions: for IC50: mean where tested more than once, ~ = standard error of pIC50 larger than 0.5; for inhibition at 10 µM: read-out: FASN % Effect @1E−05M
# T1 construct: 10 μL hFASN enzyme (full length, 300 ng, purified in house); made in house
# Outline: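 Eight compound concentrations (0.01–30 μM) tested in pH 7.5 phosphate buffer with DTT; human full-length enzyme converted [3H]-acetyl-CoA plus malonyl-CoA, with NADPH, over 60 min at room temperature. Hydrophobic [3H]-palmitate detected by bead proximity scintillation imaging; control-normalised data fitted for IC50/pIC50.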
# [2] = biological target: T2, FASN Keto-reductase Domain (Homo sapiens, UniProt P49327); experiment: Fatty Acid Synthase Keto-Reductase Domain (FASN KR) Inhibition; format: biochemical; conditions: mean where tested more than once; read-out: FASN K-R Domain pIC50 (converted)
# T2 construct: 10 μL hFASN enzyme (full length, 300 ng, purified in house) and 360 μM NADPH; made in house
# Outline: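 Keto-reductase activity followed as NADPH consumption (A340 drop between 0 and 20 min, room temperature) using in-house full-length hFASN, 360 μM NADPH and ethyl acetoacetate substrate (180 mM stock), pH 7.5 phosphate buffer.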
# A2780 ovarian cells [3] = experiment: A2780 Ovarian Cell Proliferation Assay in Lipid Reduced Medium, without Palmitate; format: cell-based; conditions: Homo sapiens, A2780; lipid reduced medium, without palmitate, 96 h, MTT; read-out: Proliferation A2780 w/o Palmitate pIC50 (converted)
# Outline: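 A2780 cells were seeded in 10% FCS medium and switched next day to 10% lipid-reduced serum without palmitate. Compounds at 0.01–30 μM were added with 0.2% DMSO, 0.2% fatty-acid-free BSA and 0.25% ethanol final. After 96 h, MTT absorbance at 544 nm was normalized to plate controls, and IC50/pIC50 came from a 4-parameter logistic fit.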
# A2780 ovarian cells [4] = experiment: A2780 Ovarian Cell Proliferation Assay in Lipid Reduced Medium, with Palmitate (control); format: cell-based; conditions: Homo sapiens, A2780; lipid reduced medium, 25 μM palmitate, 96 h, MTT; read-out: Proliferation A2780 with Palmitate pIC50 (converted)
# Outline: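 Read-out was MTT absorbance at 544 nm after 96 h at 37 °C. Cells grown overnight in RPMI1640/10% FCS were moved to 10% lipid-reduced serum with compound plus palmitate (final 25 μM, 0.2% fatty-acid-free BSA, 0.2% DMSO). IC50 came from least-squares curve fitting, expressed as −log(IC50).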
# T2 sequence (P49327 whole entry, the tested form may be a part): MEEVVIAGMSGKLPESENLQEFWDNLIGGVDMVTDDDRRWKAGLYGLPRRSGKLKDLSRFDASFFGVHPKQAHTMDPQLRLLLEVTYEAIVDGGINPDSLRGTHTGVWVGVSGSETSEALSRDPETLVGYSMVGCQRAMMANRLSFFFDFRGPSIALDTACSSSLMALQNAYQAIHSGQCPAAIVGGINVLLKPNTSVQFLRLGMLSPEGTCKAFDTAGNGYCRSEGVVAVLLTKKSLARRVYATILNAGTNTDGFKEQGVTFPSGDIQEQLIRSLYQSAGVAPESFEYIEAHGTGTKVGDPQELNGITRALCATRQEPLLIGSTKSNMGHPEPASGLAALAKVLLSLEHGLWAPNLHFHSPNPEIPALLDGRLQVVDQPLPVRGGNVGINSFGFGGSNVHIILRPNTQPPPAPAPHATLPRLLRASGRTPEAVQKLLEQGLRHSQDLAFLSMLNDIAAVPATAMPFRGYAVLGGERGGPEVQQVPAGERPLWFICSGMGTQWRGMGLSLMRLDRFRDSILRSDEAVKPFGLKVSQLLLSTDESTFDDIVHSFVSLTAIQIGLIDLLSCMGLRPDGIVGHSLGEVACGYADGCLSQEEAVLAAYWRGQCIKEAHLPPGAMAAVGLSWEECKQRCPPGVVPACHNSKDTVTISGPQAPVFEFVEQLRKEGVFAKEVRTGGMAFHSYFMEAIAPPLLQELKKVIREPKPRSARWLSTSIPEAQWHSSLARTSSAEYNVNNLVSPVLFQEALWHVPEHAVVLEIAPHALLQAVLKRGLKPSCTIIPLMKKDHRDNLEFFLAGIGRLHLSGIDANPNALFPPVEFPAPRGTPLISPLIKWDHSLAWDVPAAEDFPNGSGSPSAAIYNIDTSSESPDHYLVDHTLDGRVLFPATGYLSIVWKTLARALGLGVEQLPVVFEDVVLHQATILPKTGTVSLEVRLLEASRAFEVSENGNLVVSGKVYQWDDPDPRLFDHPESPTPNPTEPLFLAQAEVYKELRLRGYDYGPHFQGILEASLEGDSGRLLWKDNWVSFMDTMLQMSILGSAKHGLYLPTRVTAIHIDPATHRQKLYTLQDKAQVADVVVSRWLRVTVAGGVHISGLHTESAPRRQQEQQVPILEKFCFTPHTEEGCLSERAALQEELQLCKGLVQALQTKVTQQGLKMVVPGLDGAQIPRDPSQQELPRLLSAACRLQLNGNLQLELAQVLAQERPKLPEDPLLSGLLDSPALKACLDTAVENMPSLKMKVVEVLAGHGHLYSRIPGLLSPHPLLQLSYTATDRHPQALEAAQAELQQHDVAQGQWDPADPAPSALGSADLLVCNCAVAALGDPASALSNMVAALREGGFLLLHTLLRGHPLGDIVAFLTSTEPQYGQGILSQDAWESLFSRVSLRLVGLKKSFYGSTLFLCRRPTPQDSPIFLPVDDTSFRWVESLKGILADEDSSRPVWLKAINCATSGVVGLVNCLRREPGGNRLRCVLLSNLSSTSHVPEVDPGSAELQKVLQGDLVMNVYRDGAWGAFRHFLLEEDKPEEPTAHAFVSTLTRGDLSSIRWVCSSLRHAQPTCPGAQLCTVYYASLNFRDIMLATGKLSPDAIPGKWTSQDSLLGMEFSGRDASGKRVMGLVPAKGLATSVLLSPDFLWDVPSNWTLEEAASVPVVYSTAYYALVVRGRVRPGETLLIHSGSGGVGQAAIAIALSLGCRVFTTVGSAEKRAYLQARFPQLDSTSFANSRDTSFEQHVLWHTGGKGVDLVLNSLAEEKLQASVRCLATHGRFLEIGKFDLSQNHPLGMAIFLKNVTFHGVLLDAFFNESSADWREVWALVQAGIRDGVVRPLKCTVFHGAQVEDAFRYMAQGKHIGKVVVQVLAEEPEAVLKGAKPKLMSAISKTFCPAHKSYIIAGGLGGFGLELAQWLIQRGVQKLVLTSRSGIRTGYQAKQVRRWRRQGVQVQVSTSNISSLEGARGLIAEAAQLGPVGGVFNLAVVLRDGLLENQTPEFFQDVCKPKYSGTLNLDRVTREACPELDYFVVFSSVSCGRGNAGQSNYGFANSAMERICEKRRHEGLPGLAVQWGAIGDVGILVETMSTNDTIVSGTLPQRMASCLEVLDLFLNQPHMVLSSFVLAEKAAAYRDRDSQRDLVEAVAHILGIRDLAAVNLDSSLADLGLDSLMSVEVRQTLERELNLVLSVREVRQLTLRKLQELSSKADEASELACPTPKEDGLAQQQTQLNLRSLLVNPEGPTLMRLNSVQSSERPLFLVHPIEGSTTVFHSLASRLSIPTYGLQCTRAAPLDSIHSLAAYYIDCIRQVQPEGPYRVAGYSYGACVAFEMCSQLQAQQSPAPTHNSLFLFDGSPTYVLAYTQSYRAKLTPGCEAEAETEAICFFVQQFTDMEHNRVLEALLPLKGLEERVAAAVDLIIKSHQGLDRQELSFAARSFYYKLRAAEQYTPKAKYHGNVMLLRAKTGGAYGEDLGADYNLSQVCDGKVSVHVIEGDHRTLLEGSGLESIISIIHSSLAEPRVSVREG
# T1 sequence (P49327 whole entry): as the sequence (P49327 whole entry, the tested form may be a part) above
IC50 [1],inhibition at 10 µM [1],IC50 [2],IC50 (A2780 ovarian cells [3]),IC50 (A2780 ovarian cells [4]),Structure (SMILES)
269 nM,95%,589 nM,355 nM,> 10 µM,"CCN1CC(C(=O)Nc2cc(C(=O)N3CCC(c4ccc(-c5cnn(C)c5)cc4)CC3)ccc2C)C1 [Compound 205, 1-ethyl-N-(2-methyl-5-(4-(4-(1-methyl-1H-pyrazol-4-yl)phenyl)piperidine-1-carbonyl)phenyl)azetidine-3-carboxamide]"
158 nM,99%,457 nM,151 nM,> 10 µM,"Cc1ccc(C(=O)N2CCC(c3ccc(-c4cnn(C)c4)cc3)CC2)cc1NC(=O)C1CN(C(C)C)C1 [Compound 206, 1-isopropyl-N-(2-methyl-5-(4-(4-(1-methyl-1H-pyrazol-4-yl)phenyl)piperidine-1-carbonyl)phenyl)azetidine-3-carboxamide]"
132 nM,105%,479 nM,182 nM,> 10 µM,"Cc1ccc(C(=O)N2CCC(c3ccc(-c4cnn(C)c4)cc3)CC2)cc1NC(=O)C1CCN(C(C)C)C1 (stereo not drawn) [Compound 207, 1-isopropyl-N-(2-methyl-5-(4-(4-(1-methyl-1H-pyrazol-4-yl)phenyl)piperidine-1-carbonyl)phenyl)pyrrolidine-3-carboxamide]"
269 nM,101%,631 nM,275 nM,> 10 µM,"CCCN1CC(C(=O)Nc2cc(C(=O)N3CCC(c4ccc(-c5cnn(C)c5)cc4)CC3)ccc2C)C1 [Compound 208, N-(2-methyl-5-(4-(4-(1-methyl-1H-pyrazol-4-yl)phenyl)piperidine-1-carbonyl)phenyl)-1-propylazetidine-3-carboxamide]"
31.6 nM,105%,74.1 nM,10 nM,> 10 µM,"Cc1ccc(C(=O)N2CCC(c3ccc(-c4cnn(C)c4)cc3)CC2)cc1NC(=O)C1CCN(C2CCC2)CC1 [Compound 209, 1-cyclobutyl-N-(2-methyl-5-(4-(4-(1-methyl-1H-pyrazol-4-yl)phenyl)piperidine-1-carbonyl)phenyl)piperidine-4-carboxamide]"
85.1 nM,108%,309 nM,110 nM,> 10 µM,"Cc1ccc(C(=O)N2CCC(c3ccc(-c4cnn(C)c4)cc3)CC2)cc1NC(=O)C1CN(CC(C)C)C1 [Compound 210, 1-isobutyl-N-(2-methyl-5-(4-(4-(1-methyl-1H-pyrazol-4-yl)phenyl)piperidine-1-carbonyl)phenyl)azetidine-3-carboxamide]"
31.6 nM,113%,74.1 nM,18.6 nM,> 10 µM,"CCCCN1CCC(C(=O)Nc2cc(C(=O)N3CCC(c4ccc(-c5cnn(C)c5)cc4)CC3)ccc2C)CC1 [Compound 211, 1-butyl-N-(2-methyl-5-(4-(4-(1-methyl-1H-pyrazol-4-yl)phenyl)piperidine-1-carbonyl)phenyl)piperidine-4-carboxamide]"
120 nM,108%,324 nM,120 nM,> 10 µM,"CCCCN1CCC(C(=O)Nc2cc(C(=O)N3CCC(c4ccc(-c5cnn(C)c5)cc4)CC3)ccc2C)C1 (stereo not drawn) [Compound 212, 1-butyl-N-(2-methyl-5-(4-(4-(1-methyl-1H-pyrazol-4-yl)phenyl)piperidine-1-carbonyl)phenyl)pyrrolidine-3-carboxamide]"
45.7 nM,111%,195 nM,64.6 nM,> 10 µM,"Cc1ccc(C(=O)N2CCC(c3ccc(-c4cnn(C)c4)cc3)CC2)cc1NC(=O)C1CN(CCC(C)C)C1 [Compound 213, 1-isopentyl-N-(2-methyl-5-(4-(4-(1-methyl-1H-pyrazol-4-yl)phenyl)piperidine-1-carbonyl)phenyl)azetidine-3-carboxamide]"
166 nM,107%,282 nM,275 nM,9.55 µM,"CCCCCN1CC(C(=O)Nc2cc(C(=O)N3CCC(c4ccc(-c5cnn(C)c5)cc4)CC3)ccc2C)C1 [Compound 214, N-(2-methyl-5-(4-(4-(1-methyl-1H-pyrazol-4-yl)phenyl)piperidine-1-carbonyl)phenyl)-1-pentylazetidine-3-carboxamide]"
105 nM,107%,309 nM,191 nM,9.33 µM,"CCCCCN1CCC(C(=O)Nc2cc(C(=O)N3CCC(c4ccc(-c5cnn(C)c5)cc4)CC3)ccc2C)C1 (stereo not drawn) [Compound 215, N-(2-methyl-5-(4-(4-(1-methyl-1H-pyrazol-4-yl)phenyl)piperidine-1-carbonyl)phenyl)-1-pentylpyrrolidine-3-carboxamide]"
36.3 nM,113%,91.2 nM,43.7 nM,5.62 µM,CCCCCCN1CCC(C(=O)Nc2cc(C(=O)N3CCC(c4ccc(-c5cnn(C)c5)cc4)CC3)ccc2C)CC1 [Compound 216]
174 nM,105%,501 nM,214 nM,> 10 µM,Cc1ccc(C(=O)N2CCC(c3ccc(-c4cnn(C5CCOCC5)c4)cc3)CC2)cc1NC(=O)c1ccc(NC(C)C)nc1 [Compound 217]
145 nM,105%,389 nM,407 nM,8.51 µM,"CCCCCCN1CCC(C(=O)Nc2cc(C(=O)N3CCC(c4ccc(-c5cnn(C)c5)cc4)CC3)ccc2C)C1 (stereo not drawn) [Compound 218, 1-hexyl-N-(2-methyl-5-(4-(4-(1-methyl-1H-pyrazol-4-yl)phenyl)piperidine-1-carbonyl)phenyl)pyrrolidine-3-carboxamide]"
64.6 nM,116%,200 nM,234 nM,> 10 µM,"Cc1ccc(C(=O)N2CCC(c3ccc(-c4cnn(C)c4)cc3)CC2)cc1NC(=O)C1CN(C(=O)C2CC2)C1 [Compound 219, 1-(cyclopropanecarbonyl)-N-(2-methyl-5-(4-(4-(1-methyl-1H-pyrazol-4-yl)phenyl)piperidine-1-carbonyl)phenyl)azetidine-3-carboxamide]"
67.6 nM,110%,174 nM,95.5 nM,> 10 µM,"Cc1ccc(C(=O)N2CCC(c3ccc(-c4cnn(C)c4)cc3)CC2)cc1NC(=O)C1CCN(C(=O)C2CC2)C1 (stereo not drawn) [Compound 220, 1-(cyclopropanecarbonyl)-N-(2-methyl-5-(4-(4-(1-methyl-1H-pyrazol-4-yl)phenyl)piperidine-1-carbonyl)phenyl)pyrrolidine-3-carboxamide]"
75.9 nM,109%,245 nM,91.2 nM,5.01 µM,"Cc1ccc(C(=O)N2CCC(c3ccc(-c4cnn(CC5CCC5)c4)cc3)CC2)cc1NC(=O)c1ccc(NC(C)C)nc1 [Compound 221, N-(5-(4-(4-(1-(cyclobutylmethyl)-1H-pyrazol-4-yl)phenyl)piperidine-1-carbonyl)-2-methylphenyl)-6-(isopropylamino)nicotinamide]"
22.4 nM,113%,60.3 nM,8.71 nM,> 10 µM,"Cc1ccc(C(=O)N2CCC(c3ccc(-c4cnn(C)c4)cc3)CC2)cc1NC(=O)C1CN(C)C1 [Compound 222, 1-methyl-N-(2-methyl-5-(4-(4-(1-methyl-1H-pyrazol-4-yl)phenyl)piperidine-1-carbonyl)phenyl)azetidine-3-carboxamide]"
69.2 nM,102%,141 nM,148 nM,2.04 µM,"Cc1ccc(C(=O)N2CCC(c3ccc(-c4ccsc4)cc3)CC2)cc1NC(=O)c1ccc(NC(C)C)nc1 [Compound 223, 6-(isopropylamino)-N-(2-methyl-5-(4-(4-(thiophen-3-yl)phenyl)piperidine-1-carbonyl)phenyl)nicotinamide]"
170 nM,92%,282 nM,372 nM,5.75 µM,"Cc1ccc(C(=O)N2CCC(c3ccc(-c4ccccc4F)cc3)CC2)cc1NC(=O)c1ccc(NC(C)C)nc1 [Compound 224, N-(5-(4-(2′-fluoro-[1,1′-biphenyl]-4-yl)piperidine-1-carbonyl)-2-methylphenyl)-6-(isopropylamino)nicotinamide]"
339 nM,79%,457 nM,589 nM,1.58 µM,"Cc1ccc(C(=O)N2CCC(c3ccc(-c4ccccc4)cc3)CC2)cc1NC(=O)c1ccc(NC(C)C)nc1 [Compound 225, N-(5-(4-([1,1′-biphenyl]-4-yl)piperidine-1-carbonyl)-2-methylphenyl)-6-(isopropylamino)nicotinamide]"
